Data as given in PMC10037499, “High-Throughput Screen Reveals the Structure–Activity Relationship of the Antimicrobial Lasso Peptide Ubonodin” (ACS Central Science, 2023).
Like-named read-outs stand apart in the source and are kept apart here. Where a SMILES comes first, the peptide text is derived from it.

What was measured:
[1] = test system: RNA polymerase (RNAP) in E. coli MC1061; test: High-throughput growth-based screen with NGS (enrichment value) for RNA polymerase inhibition; assay type: cell-based; design: key to Experimental observation (enrichment observed in the screen): Dropout: Many variants inhibit RNAP so strongly that they cannot be detected by NGS after IPTG induction (referred to as dropout variants); conditions: Table S4; variants whose MICs were tested
Method: The single mutant library was analyzed by NGS at multiple stages of sample preparation (Figure 2A) to track its evolution throughout the screen. Specifically, the frequency of each possible aa variant was computed at each stage by summing up counts for each distinct translated sequence and dividing by the total number of counts for all variants (eq S1, SI Methods). Since cells expressing an RNAP-inhibiting ubonodin variant will have growth defects relative to cells with a nontoxic variant, RNAP-inhibiting ubonodin variants are expected to decrease in frequency throughout the screen.
First, the naïve library (digested PCR products) was sequenced. These digested PCR products were cloned into the pUboABC backbone and transformed into a recA^– cloning strain. This plasmid library was sequenced again to capture any changes upon transformation of the library into E. coli. The change between the naïve library and the cloning transformation library was minimal (Figure S6A). This plasmid library was transformed into the screening strain MC1061, and the plasmid from resulting colonies was also sequenced. The library in MC1061 was grown up en masse in liquid culture to mid log phase, and a portion of the culture was plated. These colonies were scraped, then the plasmid was isolated and sequenced. Finally, the liquid culture was induced with IPTG, after which a portion of the culture was plated and the plasmid was isolated and sequenced. It is key to note that all samples from liquid cultures were plated prior to sequencing to ensure that only viable cells were sequenced. […] The rationale for sequencing at these five different stages was the possibility that leaky expression of uboA would affect the frequency of active mutants prior to IPTG induction. Indeed, we observed that the frequency of some uboA mutants dropped as soon as they were transformed into the screening strain MC1061 while the frequency of other mutants climbed (Figure 2B).
The behavior of the point variants (i.e., variants with a single aa substitution) was examined by calculating their enrichment values, the base-2 logarithm of the ratio of the variant’s frequency at a specific step of the screen to the variant’s frequency in the cloning transformation library (eq S3, Figure S6). The most relevant enrichment value for ubonodin activity is the comparison between the post-IPTG library and the cloning transformation library (Figure 2A). […] Many variants inhibit RNAP so strongly that they cannot be detected by NGS after IPTG induction (referred to as dropout variants). […] Variants with a stop codon mutation and variants containing an aa substitution at Tyr9 or Tyr27 (positions conserved in MccJ25 and shown to be crucial for RNAP inhibition, see Figure S7)[26] have positive enrichment values (1.2–1.7), serving as quality control for the screen (Figure 3A). Strikingly, 63% of point variants decreased in frequency, indicating a high tolerance to aa substitution. […] The positions with active variants are Asn11 through Ser24 in the loop and Asp3, Ser5, and Ala7 in the ring.
The single mutant and double mutant libraries were transformed into E. coli MC1061. Colonies were resuspended in media and subcultured into a larger culture. Aliquots of the cultures were sampled prior to and after induction with 10 μM IPTG and 100 μM IPTG and plated. After 16 h of incubation, the colonies were resuspended in media and plasmids were miniprepped.
Samples were PCR amplified with barcoded primers and combined such that double mutant library samples were over-represented compared to single mutant library samples to provide sufficient coverage of the larger double mutant library. Samples were sequenced using an Illumina MiSeq Micro 300nt and an Illumina NovaSeq 6000 Sequencing System. Downstream analysis of the data was conducted with Python, MATLAB, and R.
V to reduce genomic DNA contamination. One fragment was amplified with Xho I For Lib and a […]

B. cenocepacia AU0756 = test system: B. cenocepacia AU0756
Method: We proceeded to test the antimicrobial activity of the selected variants against two clinical isolates of the Bcc, B. cenocepacia AU0756 and B. cenocepacia AU24362, in broth microdilution assays. […] We revisited these measurements using broth microdilution assays following the Clinical & Laboratory Standards Institute (CLSI) standard.
Broth microdilution assays of the ubonodin variants were conducted using B. cenocepacia AU0756 and B. cenocepacia AU24362 with guidelines provided by the Clinical & Laboratory Standards Institute (CLSI).

E. coli MC1061 = test: Spot dilution assay of E. coli producing the ubonodin variant from pUboABC; assay type: cell-based; conditions: variant in pUboABC backbone in E. coli MC1061, induction with 100 μM IPTG, ten-fold serial dilutions, biological duplicates
Method: Cultures of E. coli MC1061 transformed with the appropriate plasmids were grown. Aliquots of the cultures were sampled prior to and after induction with 100 μM IPTG, and 10-fold serial dilutions were plated. […]
All cloning was conducted by PCR amplification (using Q5 polymerase), restriction digestion, ligation, (using T4 DNA ligase), and transformation into chemically competent E. coli XL1-Blue. All cloning with a pUboABC backbone was done by plating transformation mixt ures onto Lysogeny Broth (LB) plates supplemented with 100 μg/mL ampicillin and 0.2% w/v glucose, and colonies were inoculated into LB media supplemented with 100 μ g/mL ampicillin and 0.2% w/v glucose to suppress any leaky expression. Cloning for all other plasmid constructs was done by plating transformation mixtures onto Lysogeny Broth (LB) plates supplemented with 100 μ g/ m L ampicillin, and colonies were inoculated into LB media supplemented with 100 μ g/ m L ampicillin.
Plasmids were extracted using Qiagen QIAprep Spin Miniprep Kit and sequence verified using Sanger sequencing. All primer sequences are listed in Table S7, and all plasmid constructs are […]
pUboABC was cloned by amplifying pWC99 with pQE-80 NheI For and pAT8 Nco I Rev.
The amplicon was ligated into pWC99 digested with Nhe I and Nco I. pUboBC was cloned by digesting pUboABC with Nh e I and Nco I and ligating that fragment into pQE-80 digested with Nhe I and Nco I. pUboABC S5H I16P and pUboABCD S5H I16P were cloned with overlap PCR using pWC99 as the template. One fragment was amplified with pQE-80 EcoRI For and S5H I16P Rev v2 and the second fragment was amplified with S5H I16P For v2 and pQE-80 HindII I Rev. […]
All remaining plasmid constructs were cloned with overlap PCR. One fragment was amplified with Xho I For Lib and a mutagenic reverse primer and the second fragment was amplified with NheI Rev Lib and a mutagenic forward primer. The templates and mutagenic […]
The fragments were joined with a second round of PCR and amplified with XhoI For Lib and NheI Rev Lib. Amplicons were ligated into the appropriate plasmid backbone digested with Xho I and Nhe I-HF. The plasmid backbones […]
The appropriate plasmid was transformed into electrocompetent E. coli MC1061, plated onto LB plates supplemented with 100 μ g/ m L ampicillin and 0.2% w/v glucose, and incubated at 30 °C for 16 hours. Colonies were inoculated into LB media supplemented with 100 μ g/ m L ampicillin and 0.2% w/v glucose and grown at 37 °C for 16 hours. These cultures were sub-cultured to an OD600 of 0.02 in 50 mL of LB media supplemented with 100 μg/mL ampicillin in a 250 mL flask. Once the OD600 reached 0.3, a 1 mL aliquot was sampled immediately prior to inducing the cultures with 100 μM isopropyl β-D-1-thiogalactopyranoside (IPTG). The aliquot was washed with Phosphate-Buffered Saline (PBS) two times and ten-fold serial dilutions were spotted onto LB plates supplemented with 100 μ g/ m L ampicillin and 0.2% w/v glucose. For each following timepoint, a 1 mL sample of each culture was withdrawn, washed with PBS two times, and ten- […]
fold serial dilutions were spotted onto LB plates supplemented with 100 μ g/m L ampicillin and 0.2% w/v glucose. Plates were incubated for 16 hours at 37 °C before imaging. […]
250 mL flask. Ten-fold serial dilutions of the culture were plated onto LB plates supplemented with 100 μ g/ m L ampicillin and 0.2% w/v glucose. The cultures were then grown at 37 °C, and once the OD600 reached 0.3, a 1 mL sample of the culture was withdrawn immediately before the cultures were induced with 10 μM or 100 μM IPTG and returned to grow longer. […]
All plates were incubated at 37 °C for 16 hours, after which the number of colonies was counted. Three biological replicates of this assay were done.
Co-Culture of E. coli MC1061 pUboABC and E. coli MC1061 pUboBC pUboABC (0.9 ng) and pUboBC (0.1 ng) were transformed into electrocompetent E. coli MC1061 with a one- hour outgrowth at 37 °C in LB media supplemented with 0.2% w/v glucose. […]

SMILES | Experimental observation (enrichment observed in the screen) [1] | B. cenocepacia AU0756 MIC (B. cenocepacia AU0756) [µM] | MIC (B. cenocepacia AU0756) [µM] | MIC (B. cenocepacia AU0756; broth microdilution, mass basis, strain not named in the sentence (values match AU0756)) [µg/mL] | Inhibits Growth (E. coli MC1061)
CC[C@H](C)[C@H](NC(=O)[C@H](Cc1c[nH]cn1)NC(=O)[C@H](CCSC)NC(=O)[C@@H]1CCCN1C(=O)[C@H](CCCNC(=N)N)NC(=O)[C@H](CC(N)=O)NC(=O)[C@H](Cc1ccccc1)NC(=O)[C@H](Cc1ccc(O)cc1)NC(=O)[C@@H]1CCC(=O)NCC(=O)NCC(=O)N[C@@H](CC(=O)O)C(=O)NCC(=O)N[C@@H](CO)C(=O)N[C@@H]([C@@H](C)CC)C(=O)N[C@@H](C)C(=O)N1)C(=O)NCC(=O)N[C@@H](CC(=O)O)C(=O)N[C@@H](Cc1c[nH]c2ccccc12)C(=O)N[C@@H](CCC(N)=O)C(=O)N[C@H](C(=O)N[C@@H](CCSC)C(=O)N[C@@H](CC(=O)O)C(=O)N[C@@H](CO)C(=O)NCC(=O)N[C@@H](Cc1ccc(O)cc1)C(=O)N[C@@H](Cc1ccc(O)cc1)C(=O)NCC(=O)O)[C@@H](C)CC [H17G] (HELM PEPTIDE1{G.G.D.G.S.I.A.E.Y.F.N.R.P.M.H.I.G.D.W.Q.I.M.D.S.G.Y.Y.G}$PEPTIDE1,PEPTIDE1,1:R1-8:R3$$$V2.0) | -6.5 | 0.125 to 0.25 | 0.125 to 0.25 | 0.4 to 0.8 | Yes
CC[C@H](C)[C@@H]1NC(=O)[C@H](CO)NC(=O)CNC(=O)[C@H](CC(=O)O)NC(=O)CNC(=O)CNC(=O)CC[C@@H](C(=O)N[C@@H](Cc2ccc(O)cc2)C(=O)N[C@@H](Cc2ccccc2)C(=O)N[C@@H](CC(N)=O)C(=O)N[C@@H](CCCNC(=N)N)C(=O)N2CCC[C@H]2C(=O)N[C@@H](CCSC)C(=O)N[C@@H](Cc2c[nH]cn2)C(=O)N[C@@H](CCC(=O)O)C(=O)N[C@@H](Cc2c[nH]cn2)C(=O)N[C@@H](CC(=O)O)C(=O)N[C@@H](Cc2c[nH]c3ccccc23)C(=O)N[C@@H](CCC(N)=O)C(=O)N[C@H](C(=O)N[C@@H](CCSC)C(=O)N[C@@H](CC(=O)O)C(=O)N[C@@H](CO)C(=O)NCC(=O)N[C@@H](Cc2ccc(O)cc2)C(=O)N[C@@H](Cc2ccc(O)cc2)C(=O)NCC(=O)O)[C@@H](C)CC)NC(=O)[C@H](C)NC1=O [I16E] (HELM PEPTIDE1{G.G.D.G.S.I.A.E.Y.F.N.R.P.M.H.E.H.D.W.Q.I.M.D.S.G.Y.Y.G}$PEPTIDE1,PEPTIDE1,1:R1-8:R3$$$V2.0) | -7.5 | 0.5 to 1 |  |  | Yes
CC[C@H](C)[C@H](NC(=O)[C@H](CCC(N)=O)NC(=O)[C@H](Cc1c[nH]c2ccccc12)NC(=O)[C@H](CC(=O)O)NC(=O)[C@H](Cc1c[nH]cn1)NC(=O)[C@@H](NC(=O)[C@H](Cc1c[nH]cn1)NC(=O)[C@H](CCSC)NC(=O)[C@@H]1CCCN1C(=O)[C@H](CCCNC(=N)N)NC(=O)[C@H](CC(N)=O)NC(=O)[C@H](Cc1ccccc1)NC(=O)[C@H](Cc1ccc(O)cc1)NC(=O)[C@@H]1CCC(=O)NCC(=O)NCC(=O)N[C@@H](CC(=O)O)C(=O)NCC(=O)N[C@@H](CO)C(=O)N[C@@H]([C@@H](C)CC)C(=O)N2CCC[C@H]2C(=O)N1)[C@@H](C)CC)C(=O)N[C@@H](CCSC)C(=O)N[C@@H](CC(=O)O)C(=O)N[C@@H](CO)C(=O)NCC(=O)N[C@@H](Cc1ccc(O)cc1)C(=O)N[C@@H](Cc1ccc(O)cc1)C(=O)NCC(=O)O [A7P] (HELM PEPTIDE1{G.G.D.G.S.I.P.E.Y.F.N.R.P.M.H.I.H.D.W.Q.I.M.D.S.G.Y.Y.G}$PEPTIDE1,PEPTIDE1,1:R1-8:R3$$$V2.0; C-terminus assumed) | -3.4 | 2 |  |  | Yes
CC[C@H](C)[C@H](NC(=O)[C@H](Cc1c[nH]cn1)NC(=O)[C@H](CCSC)NC(=O)[C@@H]1CCCN1C(=O)[C@@H](NC(=O)[C@H](CC(N)=O)NC(=O)[C@H](Cc1ccccc1)NC(=O)[C@H](Cc1ccc(O)cc1)NC(=O)[C@@H]1CCC(=O)NCC(=O)NCC(=O)N[C@@H](CC(=O)O)C(=O)NCC(=O)N[C@@H](CO)C(=O)N[C@@H]([C@@H](C)CC)C(=O)N[C@@H](C)C(=O)N1)C(C)C)C(=O)NCC(=O)N[C@@H](CC(=O)O)C(=O)N[C@@H](Cc1c[nH]c2ccccc12)C(=O)N[C@@H](CCC(N)=O)C(=O)N[C@H](C(=O)N[C@@H](CCSC)C(=O)N[C@@H](CC(=O)O)C(=O)N[C@@H](CO)C(=O)NCC(=O)N[C@@H](Cc1ccc(O)cc1)C(=O)N[C@@H](Cc1ccc(O)cc1)C(=O)NCC(=O)O)[C@@H](C)CC [R12V H17G] (HELM PEPTIDE1{G.G.D.G.S.I.A.E.Y.F.N.V.P.M.H.I.G.D.W.Q.I.M.D.S.G.Y.Y.G}$PEPTIDE1,PEPTIDE1,1:R1-8:R3$$$V2.0) | Dropout | 0.25 to 0.5 |  |  | Yes
